From patent publication US10526580B2, “Differentiated cell population of endothelial cells derived from human pluripotent stem cells, composition, system, kit and uses thereof” (BIOCANT-ASSOCIAÇÃO DE TRANSFERÊNCIA DE TECNOLOGIA, priority 2012, dated 2020)
Structures can show the parent of a compound that is named as a salt.

test system: hESC-derived ECs versus ACL cells; assay: High-throughput screening of LOPAC library, PrestoBlue cell viability, hESC-derived ECs versus ACL cells; assay type: cell-based, human; conditions: LOPAC screen, 4.5 μM, 4 days of incubation, PrestoBlue assay
Protocol: (§1) High-throughput screening (HTS). HUAECS (Lonza) and hESC-derived ECs were cultured in EGM-2 medium while human anterior cruciate ligament cells (ACL cells) were cultured in Dulbecco's modified Eagle's medium (DMEM; PAA) supplemented with 10% FBS, 0.2 mM ascorbic acid 2-phosphate magnesium salt (Sigma Aldrich), […] streptomycin and 100 U/mL penicillin (Life Technologies). ACL cells were isolated from patients that have signed an informed consent form, in compliance with the Dutch legislation. The ethical committee of Medisch Spectrum Twente Hospital approved the collection.
(§2) The LOPAC library (Sigma-Aldrich) was used to screen embryonic endothelial-specific cytotoxic compounds. The compounds were solubilized in DMSO. The final compound concentration used in the screen was 4.5 μM in a final volume of 200 μL per well (96-well plate). HUAECs, hESC-derived EC and ACL cells were seeded at 16,000 cells/well (HUAECs and hESC-derived ECs) and 5,000 cells/well (ACL cells) and allowed to reach near confluence (approximately two days). After two days, medium was exchanged and test compounds and controls were added to the 96-well plates (all wells contained 0.25% (v/v) DMSO). After 4 days of incubation, cell viability was assessed using a PrestoBlue (Invitrogen) assay. This assay is based on a resazurin-based solution that indicates the reducing power of living cells and therefore measures indirectly their number. For each measurement, cell medium was removed and the PrestoBlue solution (10%) was added for 3 h at 37° C. upon which the absorbance was measured at 560-590 nm.
(§3) Disruption of vascular development has been directly correlated with prenatal loss, malformations and neurodevelopmental problems^41-44. […] The library was screened at a single dosage of 4.5 μM in a volume of 200 μL per well of EGM-2 medium, containing 0.25% DMSO (v/v). […] Six compounds (danazol, chlorpromazine hydrochloride, ellipticine, 3′,4′-dichlorobenzamil, fluphenazine dihydrochloride and 7-cyclopentyl-5-(4-phenoxy)phenyl-7H-pyrrolo[2,3-d]pyrimidin-4-ylamine) affected cell viability in both cells by a difference of 20% (FIG. 4B). The six compounds belong to different classes: cell cycle, ion pumps, dopamine pathway, phosphorylation and hormone signaling. The compounds selected from the primary screen were then tested against hESC-derived ECs and HUAECs at eight different concentrations to obtain a dose-response curve (FIG. 4C and FIG. 14).

Row | Molecule | Differences (%) in cell viability (hESC-Derived ECs versus ACL cells)
1 | OCCN1CCN(CCCN2c3ccccc3Sc3ccc(C(F)(F)F)cc32)CC1 [Fluphenazine dihydrochloride] | 51.4%
2 | N/C(=N\C(=O)c1nc(Cl)c(N)nc1N)NCc1ccc(Cl)c(Cl)c1 [3′,4′-Dichlorobenzamil] | 54.2%
3 | C#C[C@]1(O)CC[C@H]2[C@@H]3CCC4=Cc5oncc5C[C@]4(C)[C@H]3CC[C@@]21C [Danazol] | 52.7%
4 | CN(C)CC/C=C1/c2ccccc2Sc2ccc(Cl)cc21 [Chlorprothixene hydrochloride] | 58.1%
5 | COc1cc([C@@H]2c3cc4c(cc3[C@H](O)[C@H]3COC(=O)[C@H]23)OCO4)cc(OC)c1OC [Podophyllotoxin] | 75.7%
6 | CN(C)CCCN1c2ccccc2Sc2ccc(Cl)cc21 [Chlorpromazine hydrochloride] | 57.2%
7 | CN1CCN(CCCN2c3ccccc3Sc3ccc(C(F)(F)F)cc32)CC1 [Trifluoperazine dihydrochloride] | 54.0%
8 | C[C@@]12C(=O)OC(=O)[C@]1(C)[C@H]1CC[C@@H]2O1 [Cantharidin] | 94.3%
9 | Clc1ccc(C(c2ccc(Cl)cc2)n2cc[n+](CC(OCc3ccc(Cl)cc3Cl)c3ccc(Cl)cc3Cl)c2)cc1 (centres unmarked) [Calmidazolium chloride] | 96.1%
10 | COc1ccc(CCN(C)CCCC(C#N)(c2ccc(OC)c(OC)c2)C(C)C)cc1OC.Cl (racemic) [(±)-Verapamil hydrochloride] | 85.1%
11 | CC(=O)[C@]1(O)Cc2c(O)c3c(c(O)c2[C@@H](O[C@H]2C[C@H](N)[C@H](O)[C@H](C)O2)C1)C(=O)c1ccccc1C3=O [Idarubicin] | 94.0%
12 | Nc1ncn([C@@H]2O[C@H](CO)[C@@H](O)[C@H]2O)c(=O)n1 [5-azacytidine] | 56.1%
13 | CC(C)(C)c1ccc(C(O)CCCN2CCC(C(O)(c3ccccc3)c3ccccc3)CC2)cc1 (centres unmarked) [Terfenadine] | 98.3%
14 | CCC(=O)c1ccc2c(c1)N(CCCN(C)C)c1ccccc1S2 [Propionylpromazine hydrochloride] | 50.3%
15 | Br.CN=c1nc(-c2ccccc2)n(-c2ccccc2)s1 [SCH-202676 hydrobromide] | 53.2%
16 | C[C@@H]1O[C@@H](O[C@H]2C[C@@H](O)[C@]3(CO)[C@H]4[C@H](O)C[C@]5(C)[C@@H](C6=CC(=O)OC6)CC[C@]5(O)[C@@H]4CC[C@]3(O)C2)[C@H](O)[C@H](O)[C@H]1O [Ouabain] | 94.6%
17 | Cc1nc2n(c(=O)c1CCN1CCC(c3noc4cc(F)ccc34)CC1)CCCC2 [Risperidone] | 56.9%
18 | c1ccc2c(c1)[I+]c1ccccc1-2 [Diphenyleneiodonium chloride] | 69.6%
19 | C[n+]1cc2c3c(ccc2c2ccc4cc5c(cc4c21)OCO5)OCO3 [Sanguinarine chloride] | 96.4%
20 | COc1cc2c(cc1C(F)(F)F)N(C(=O)Nc1cc(F)cc(-c3cccnc3)c1)CC2 [SB 228357] | 62.7%
21 | COc1cc(OC)c(C=C2C(O)=Nc3ccccc32)c(OC)c1 [IC 261] | 73.0%
22 | COc1ccc(NC(=O)c2ccc(-c3ccc(-c4noc(C)n4)cc3C)cc2)cc1N1CCN(C)CC1 [GR 127935 hydrochloride] | 66.1%
23 | Cl.Cl.OCCN1CCN(CC/C=C2/c3ccccc3Sc3ccc(C(F)(F)F)cc32)CC1 [cis-(Z)-Flupenthixol dihydrochloride] | 69.6%

Row | Molecule | Differences (%) in cell viability (hESC-Derived ECs versus ACL cells)
24 | CN(C)CCCN1c2ccccc2Sc2ccc(C(F)(F)F)cc21 [Triflupromazine hydrochloride] | 53.0%
25 | Cc1c2ccncc2c(C)c2c1[nH]c1ccccc12 [Ellipticine] | 58.5%
26 | Cc1scc2c1N(C(=O)CN1CCN(C)CC1)c1ccccc1NC2=O [Telenzepine dihydrochloride] | 68.9%
27 | CCN(CC)C(=O)N[C@H]1C[C@@H]2c3cccc4[nH]cc(c34)C[C@H]2N(C)C1 [R(+)-Terguride] | 57.1%
28 | CCCCCCCCCCCCCCCCCC(=O)NCC(COP(=O)([O-])OCC[N+](C)(C)C)OCC (racemic) [rac-2-Ethoxy-3-octadecanamido-1-propylphosphocholine] | 56.2%
29 | CC[C@H]1CN2CCc3cc(OC)c(OC)cc3[C@@H]2C[C@@H]1C[C@H]1NCCc2cc(OC)c(OC)cc21 [Emetine dihydrochloride hydrate] | 93.4%
30 | Cc1nc(-c2ccc(-c3ccc(C(=O)N4CCc5cc6c(cc54)C4(CCN(C)CC4)CO6)cc3)c(C)c2)no1 [SB 224289 hydrochloride] | 96.7%
31 | Cn1c(=O)c2[nH]c(-c3ccccc3)nc2n(C)c1=O [1,3-Dimethyl-8-phenylxanthine] | 68.8%
32 | CC(C)[C@@]1(NC(=O)[C@@H]2C=C3c4cccc5[nH]cc(c45)C[C@H]3N(C)C2)O[C@@]2(O)[C@@H]3CCCN3C(=O)[C@H](Cc3ccccc3)N2C1=O [Ergocristine] | 52.5%
33 | C[C@H]1O[C@@H](n2cc(F)c(=O)[nH]c2=O)[C@H](O)[C@@H]1O [5-fluoro-5′-deoxyuridine] | 60.8%
34 | (±)-Butaclamol hydrochloride | 53.6%
35 | C/C=C(/C)C(=O)O[C@H]1C(C)=C2[C@H]([C@@H]1OC(=O)CCCCCCC)[C@@](C)(OC(C)=O)C[C@H](OC(=O)CCC)[C@@]1(O)[C@H]2OC(=O)[C@@]1(C)O [Thapsigargin] | 94.8%
36 | C[C@H]1CCC/C=C/[C@@H]2C[C@H](O)C[C@H]2[C@H](O)/C=C/C(=O)O1 [Brefeldin A] | 95.5%
37 | COc1ccc(CCCOC(Cn2ccnc2)c2ccc(OC)cc2)cc1 (centres unmarked) [SKF 96365] | 69.8%
38 | R-(−)-Fluoxetine hydrochloride | 54.5%
39 | COC[C@H]1OC(=O)c2coc3c2[C@@]1(C)C1=C(C3=O)[C@@H]2CCC(=O)[C@@]2(C)C[C@H]1OC(C)=O [Wortmannin from Penicillium funiculosum, Wortmannin] | 57.9%
40 | CC/C(=C(\c1ccccc1)c1ccc(OCCN(C)C)cc1)c1ccccc1 [Tamoxifen citrate] | 98.3%
41 | [N-]=[N+]=Nc1ccc(C(=O)CSC[C@H](NC(=O)CC[C@H](N)C(=O)O)C(=O)NCC(=O)O)cc1 [S-(p-Azidophenacyl)glutathione] | 61.3%
42 | Cc1cc(N)c2ccccc2[n+]1CCCCCCCCCCCCCC[n+]1c(C)cc(N)c2ccccc21 [Dequalinium analog, C-14 linker] | 96.6%
43 | N[C@@H](Cn1cc(I)c(=O)[nH]c1=O)C(=O)O [S-5-lodowillardiine] | 52.8%
44 | COc1cc2c(cc1O)CC[C@@H]1[C@@H]2CC[C@]2(C)[C@@H](O)CC[C@@H]12 [2-methoxyestradiol] | 84.3%
45 | C[C@]12C=CC(=O)C=C1CC[C@@H]1C2=CC[C@]2(C)[C@@H](C(=O)CN3CCN(c4cc(N5CCCC5)nc(N5CCCC5)n4)CC3)CC[C@@H]12.O=C(O)/C=C\C(=O)O [U-74389G maleate] | 51.6%

test system: hESC-derived ECs versus HUAECs; assay: High-throughput screening of LOPAC library, PrestoBlue cell viability, hESC-derived ECs versus HUAECs; assay type: cell-based, human; conditions: LOPAC screen, 4.5 μM, 4 days, PrestoBlue assay
Protocol: as §1, §2, §3

Row | Molecule | difference in cell viability between hESC-derived ECs and HUAECs
46 | OCCN1CCN(CCCN2c3ccccc3Sc3ccc(C(F)(F)F)cc32)CC1 [Fluphenazine dihydrochloride] | 20%
47 | N/C(=N\C(=O)c1nc(Cl)c(N)nc1N)NCc1ccc(Cl)c(Cl)c1 [3′,4′-Dichlorobenzamil] | 20%
48 | C#C[C@]1(O)CC[C@H]2[C@@H]3CCC4=Cc5oncc5C[C@]4(C)[C@H]3CC[C@@]21C [Danazol] | 20%
49 | CN(C)CCCN1c2ccccc2Sc2ccc(Cl)cc21 [Chlorpromazine hydrochloride] | 20%
50 | Cc1c2ccncc2c(C)c2c1[nH]c1ccccc12 [Ellipticine] | 20%
